Laboratory results: patent US6806267B1, “Apoptosis-inducing compounds” (priority 1998, dated 2004)

Legend:
Jurkat cells = assay type: cell-based, human; settings: 1 hour, then etoposide 16 hours
Cytochrome C = Cytochrome C Western blot, CML cell cytosol; assay type: cell-based, human; settings: K562, KYO.1, Lama 84; 16 hour treatment
Description: Cells (15×10^6) were harvested by centrifugation at 1800 g for 10 min at 4° C. After being washed once with ice-cold phosphate-buffered saline, the cell pellet was suspended in 100 μl of ice-cold buffer A (20 mM Hepes, pH 7.5, 10 mM KCl, 1.5 mM MgCl2, 1 mM sodium EDTA, 1 mM sodium EGTA, 1 mM dithiotreitol and 0.1 mM phenylmethylsulfonyl fluoride) supplemented with protease inhibitors (5 μg/ml pepstatin A, 10 μg/ml leupeptin and 2 μg/ml of aprotinin). The cells were left to sit on ice for 15 min and then centrifuged at 20,000 g for 20 min. The resulting supernatant was stored at −70° C. until measurement of cytochrome C. Protein determination was measured by using the Bradford assay. Equal amounts of protein were resolved by SDS-polyacrylamide gel electrophoresis in 15% gels and transferred onto nitro-cellulose. Membranes were blocked with phosphate-buffered saline/5% (w/v) dry milk and probed with anti-cytochrome C antibody. Blots were washed, incubated with goat anti-mouse IgG peroxidase conjugate and developed by ECL according to the manufacturer's recommendations.

CN(C)C(=O)OC1=C(c2cccc3ccccc23)Oc2ccccc2-n2cccc21 [PBOX-6, 7-((Dimethylcarbamoyl)oxy)-6-(1-naphthyl)pyrrolo[2,1-d][1,5]benzoxazepine]
effect of pretreatment on etoposide induced apoptosis (Jurkat cells): does not protect against etoposide induced apoptosis
cytochrome C levels in the cytosol (Cytochrome C): unchanged
